Reference: PMC10882719 (Frontiers in Neuroscience, 2024)
Like-named read-outs stand apart in the source and are kept apart here.

Tests used:
Format in all cases: cell-based
168 GPCRs [1] = molecular target: T1, 168 GPCRs (Homo sapiens, UniProt O43603)
T1 construct: host or cells: PathHunter cell lines
T1 sequence (O43603 1-387): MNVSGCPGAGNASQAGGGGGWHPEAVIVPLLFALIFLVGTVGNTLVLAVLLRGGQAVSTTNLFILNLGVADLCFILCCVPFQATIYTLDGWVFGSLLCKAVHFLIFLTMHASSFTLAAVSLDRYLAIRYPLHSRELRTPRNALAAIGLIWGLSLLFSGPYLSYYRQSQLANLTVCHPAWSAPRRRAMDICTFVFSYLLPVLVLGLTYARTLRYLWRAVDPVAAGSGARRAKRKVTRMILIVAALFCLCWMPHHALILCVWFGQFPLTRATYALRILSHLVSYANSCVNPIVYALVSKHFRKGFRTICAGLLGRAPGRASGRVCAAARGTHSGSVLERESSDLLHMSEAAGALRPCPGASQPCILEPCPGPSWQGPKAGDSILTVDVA

168 GPCRs [2] = molecular target: T2, 168 GPCRs (Homo sapiens, UniProt P21462)
T2 construct: host or cells: PathHunter cell lines
T2 sequence (P21462 1-350): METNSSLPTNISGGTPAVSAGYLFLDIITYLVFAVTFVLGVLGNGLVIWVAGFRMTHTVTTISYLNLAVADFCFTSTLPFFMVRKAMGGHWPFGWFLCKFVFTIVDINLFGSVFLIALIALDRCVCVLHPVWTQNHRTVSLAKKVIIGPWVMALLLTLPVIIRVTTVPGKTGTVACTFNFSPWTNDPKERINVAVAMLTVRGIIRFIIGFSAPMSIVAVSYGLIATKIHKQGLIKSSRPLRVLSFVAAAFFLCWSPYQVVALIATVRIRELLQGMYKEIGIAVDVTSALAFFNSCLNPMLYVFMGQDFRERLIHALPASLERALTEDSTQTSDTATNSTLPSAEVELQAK

168 GPCRs [3] = molecular target: T3, 168 GPCRs (Homo sapiens, UniProt P21730)
T3 construct: host or cells: PathHunter cell lines
T3 sequence (P21730 1-350): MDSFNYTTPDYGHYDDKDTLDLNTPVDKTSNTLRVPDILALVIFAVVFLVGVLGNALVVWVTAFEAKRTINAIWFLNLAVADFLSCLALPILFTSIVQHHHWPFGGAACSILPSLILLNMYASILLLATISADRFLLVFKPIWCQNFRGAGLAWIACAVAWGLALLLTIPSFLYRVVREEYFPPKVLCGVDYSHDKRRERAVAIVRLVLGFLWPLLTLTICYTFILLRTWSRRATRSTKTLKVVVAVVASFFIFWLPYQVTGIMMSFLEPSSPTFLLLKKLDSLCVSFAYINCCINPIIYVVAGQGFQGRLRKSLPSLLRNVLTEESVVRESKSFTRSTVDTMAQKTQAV

168 GPCRs [4] = molecular target: T4, 168 GPCRs (Homo sapiens, UniProt P30559); details: OXTR
T4 construct: host or cells: PathHunter cell lines
T4 sequence (P30559 1-389): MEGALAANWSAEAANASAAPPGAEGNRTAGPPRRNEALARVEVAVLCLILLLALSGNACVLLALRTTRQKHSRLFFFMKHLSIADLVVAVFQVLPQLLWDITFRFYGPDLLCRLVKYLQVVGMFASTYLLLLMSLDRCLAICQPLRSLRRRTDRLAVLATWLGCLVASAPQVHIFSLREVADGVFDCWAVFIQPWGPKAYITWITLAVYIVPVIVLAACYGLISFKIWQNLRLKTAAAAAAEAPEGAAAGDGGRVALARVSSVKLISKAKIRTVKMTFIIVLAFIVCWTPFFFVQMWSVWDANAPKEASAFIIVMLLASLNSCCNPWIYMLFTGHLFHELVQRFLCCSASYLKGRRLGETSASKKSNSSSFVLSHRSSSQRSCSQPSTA

168 GPCRs [5] = molecular target: T5, 168 GPCRs (Homo sapiens, UniProt Q9NSD7); details: RXFP3
T5 construct: host or cells: PathHunter cell lines
T5 sequence (Q9NSD7 1-469): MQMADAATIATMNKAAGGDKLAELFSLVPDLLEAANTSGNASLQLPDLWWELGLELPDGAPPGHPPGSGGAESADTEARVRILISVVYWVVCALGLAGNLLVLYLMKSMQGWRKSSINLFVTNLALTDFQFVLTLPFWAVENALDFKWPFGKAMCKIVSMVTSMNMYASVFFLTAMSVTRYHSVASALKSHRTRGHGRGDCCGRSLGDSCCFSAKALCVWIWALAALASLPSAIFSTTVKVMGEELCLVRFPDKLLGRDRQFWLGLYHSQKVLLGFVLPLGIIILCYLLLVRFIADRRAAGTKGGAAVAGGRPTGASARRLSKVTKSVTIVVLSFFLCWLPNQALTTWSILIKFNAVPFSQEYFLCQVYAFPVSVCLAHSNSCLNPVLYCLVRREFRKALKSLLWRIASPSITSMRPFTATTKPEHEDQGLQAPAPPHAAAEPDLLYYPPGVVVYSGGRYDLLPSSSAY

| SMILES | % Agonist Activity (168 GPCRs [1]; GALR2, 1 uM) | % Antagonist Activity (168 GPCRs [1]; GALR2, 1 uM) | % Agonist Activity (168 GPCRs [1]; GALR2, 10 uM) | % Antagonist Activity (168 GPCRs [1]; GALR2, 10 uM) | % Agonist Activity (168 GPCRs [2]; FPR1, 1 uM) | % Antagonist Activity (168 GPCRs [2]; FPR1, 1 uM) | % Agonist Activity (168 GPCRs [2]; FPR1, 10 uM) | % Antagonist Activity (168 GPCRs [2]; FPR1, 10 uM) | % Agonist Activity (168 GPCRs [3]; C5aR1, 1 uM) | % Antagonist Activity (168 GPCRs [3]; C5aR1, 1 uM) | % Agonist Activity (168 GPCRs [3]; C5aR1, 10 uM) | % Antagonist Activity (168 GPCRs [3]; C5aR1, 10 uM) | % Agonist Activity (168 GPCRs [4]; Conc 1 uM) | % Antagonist Activity (168 GPCRs [4]; Conc 1 uM) | % Agonist Activity (168 GPCRs [4]; Conc 10 uM) | % Antagonist Activity (168 GPCRs [4]; Conc 10 uM) | % Agonist Activity (168 GPCRs [5]; Conc 1 uM) | % Antagonist Activity (168 GPCRs [5]; Conc 1 uM) | % Agonist Activity (168 GPCRs [5]; Conc 10 uM) | % Antagonist Activity (168 GPCRs [5]; Conc 10 uM) |
| --- | --- | --- | --- | --- | --- | --- | --- | --- | --- | --- | --- | --- | --- | --- | --- | --- | --- | --- | --- | --- |
| CNC(C)Cc1ccc2c(c1)OCO2 (stereo not shown) [MDMA, 3,4-Methylenedioxy methamphetamine, reference compound] | -2.9% | -5.1% | -3% | -7.3% | 4.4% | 4.5% | 3.7% | 2.5% | -1.1% | -5.5% | -1.1% | -4.3% | -0.2% | 3.7% | 0.6% | 8.2% | -5.2% | 15.3% | -0.7% | 19.1% |
| CNC(C)C(=O)c1ccc2c(c1)OCO2 (stereo not shown) [methylone] | 3.4% | 7% | 1.9% | 1.5% | 2.2% | -4.9% | 0.5% | -11.4% | -1% | 8.9% | -1.3% | 5% | -0.6% | 12.7% | -0.5% | 6.9% | -7.6% | 23.1% | -8.7% | 32.6% |
